According to ChEMBL document CHEMBL5335791, “Antiparasitic activity of ivermectin: Four decades of research into a "wonder drug"” (Eur J Med Chem, 2023):
pEC50, pIC50: −log10 of the molar value.

Experiments:
Trypanosoma cruzi [1] = experiment: Antitrypanosomal activity against Trypanosoma cruzi Y strain amastigotes; type: functional, organism-based
Trypanosoma cruzi [2] = experiment: Antitrypanosomal activity against Trypanosoma cruzi Y strain trypomastigotes; type: functional, organism-based
Trypanosoma cruzi [3] = experiment: Antitrypanosomal activity against Trypanosoma cruzi Y strain intracellular epimastigotes assessed as viability of intracellular epimastigote measured after 5 days; type: functional, organism-based
[4] = Acute toxicity in Beagle dog assessed as lethal dose; parameters: species or system Canis lupus familiaris; conditions: in vivo
[5] = Toxicity in mouse assessed as lethal dose; conditions: in vivo
Leishmania infantum = experiment: Antileishmanial activity against promastigote form of Leishmania infantum infected in BALB/c mouse assessed as reduction in parasite growth at 2.5 mg/kg, po administered once for every two days for 10 days; type: functional, organism-based
Macrophage = experiment: (§1) Cytotoxicity against BALB/c mouse macrophage assessed as cell viability measured after 48 hrs by MTT assay; type: toxicity, cell-based; conditions: macrophage, 48 h
[6] = Selectivity index, ratio of CC50 for cytotoxicity against BALB/c mouse macrophages to IC50 for antileishmanial activity against promastigote form of Leishmania infantum infected in BALB/c mouse; type: toxicity
Trypanosoma evansi = experiment: Antitrypanosomal activity against Trypanosoma evansi; type: functional, organism-based
[7] = as §1; type: toxicity, cell-based; conditions: BALB/c, mouse macrophages

| Compound | pEC50 (Trypanosoma cruzi [1]) | pEC50 (Trypanosoma cruzi [2]) | pEC50 (Trypanosoma cruzi [3]) | LD50 [4] | LD50 [5] | pIC50 (Leishmania infantum) | CC50 (Macrophage) | Ratio CC50/IC50 [6] | pIC50 (Trypanosoma evansi) | pIC50 (Leishmania infantum; Leishmania infantum) | CC50 at 48 h [7] | selectivity ratio ([6]; BALB/c, mouse macrophages, read-out: Ratio CC50/IC50) |
| --- | --- | --- | --- | --- | --- | --- | --- | --- | --- | --- | --- | --- |
| IVERMECTIN | 6.52 | 4.90 | 5.28 | 80 mg/kg | 200 µg/kg | 5.44 | 428 µM | 117 | 4.86 |  |  |  |
| C[C@@H]1[C@H](O)[C@@H](C)/C=C/C=C/C=C/C=C/C=C/C=C/C=C/[C@H](O[C@@H]2O[C@H](C)[C@@H](O)[C@H](N)[C@@H]2O)C[C@@H]2O[C@](O)(C[C@@H](O)C[C@@H](O)[C@H](O)CC[C@@H](O)C[C@@H](O)CC(=O)O[C@H]1C)C[C@H](O)[C@H]2C(=O)O [AMPHOTERICIN B] |  |  |  |  |  |  |  |  |  | 6.92 | 1060 nM | ~9 |
